Experimental findings from patent publication US8178570B2, “Tie-2 modulators and methods of use” (Exelixis, Inc., priority 2003, dated 2012) are described below.

pIC50: −log10 of the molar value.

This assay deals with Tie-2 (Homo sapiens, UniProt Q02763). Briefly: Tie-2 tyrosine kinase activity: kinase-dependent ATP consumption (pEY substrate, luciferase/luciferin chemiluminescence) or 33P-ATP incorporation into substrate. The assay is classed as biochemical. As to conditions: Tie-2 (human enzyme) inhibition, Table 2, class symbols A-D. The method in brief: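 Values are IC50 categories: A below 50 nM, B above 50 to 1000 nM, C above 1000 to below 10,000 nM, D 10,000 nM or more. They were measured by 33P-ATP phosphate transfer onto a generic substrate bound to the plate (scintillation), or by luminescent luciferase detection of ATP used with pEY.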
Sequence of Tie-2 (Q02763 23-1124): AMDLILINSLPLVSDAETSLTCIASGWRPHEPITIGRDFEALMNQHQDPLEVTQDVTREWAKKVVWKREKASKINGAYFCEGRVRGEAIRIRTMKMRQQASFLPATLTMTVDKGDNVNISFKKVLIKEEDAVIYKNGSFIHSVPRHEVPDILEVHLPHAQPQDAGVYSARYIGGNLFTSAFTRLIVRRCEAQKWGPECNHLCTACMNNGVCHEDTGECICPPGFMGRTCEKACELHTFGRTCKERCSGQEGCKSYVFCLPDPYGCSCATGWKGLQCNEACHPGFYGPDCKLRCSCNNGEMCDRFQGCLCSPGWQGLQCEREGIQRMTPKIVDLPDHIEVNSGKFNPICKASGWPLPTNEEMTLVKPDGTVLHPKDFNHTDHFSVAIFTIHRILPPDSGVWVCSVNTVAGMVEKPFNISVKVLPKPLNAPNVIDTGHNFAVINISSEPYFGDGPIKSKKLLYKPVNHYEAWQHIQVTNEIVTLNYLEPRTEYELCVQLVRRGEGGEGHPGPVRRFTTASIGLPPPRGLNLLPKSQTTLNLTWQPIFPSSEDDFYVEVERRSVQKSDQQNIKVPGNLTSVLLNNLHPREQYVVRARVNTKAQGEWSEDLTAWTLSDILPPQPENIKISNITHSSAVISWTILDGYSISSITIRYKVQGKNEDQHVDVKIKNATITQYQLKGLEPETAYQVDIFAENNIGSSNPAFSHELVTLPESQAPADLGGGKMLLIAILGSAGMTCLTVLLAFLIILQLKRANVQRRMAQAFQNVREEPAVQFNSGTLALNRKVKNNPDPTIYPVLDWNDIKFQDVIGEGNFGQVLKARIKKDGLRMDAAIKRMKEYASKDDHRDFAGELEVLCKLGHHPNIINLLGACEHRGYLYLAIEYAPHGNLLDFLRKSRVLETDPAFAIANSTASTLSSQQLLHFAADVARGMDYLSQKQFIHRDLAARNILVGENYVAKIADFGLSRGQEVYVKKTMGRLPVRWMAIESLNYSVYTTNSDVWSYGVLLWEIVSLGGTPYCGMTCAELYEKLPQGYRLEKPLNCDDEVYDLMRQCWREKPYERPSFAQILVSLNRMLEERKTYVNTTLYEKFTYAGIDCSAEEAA
For the molecule `CCc1ccccc1NC(=O)N(CCn1nc(-c2ccncc2)nc1-c1ccc(OC)c(Cl)c1)C1CCCC1` [Entry 87, N-(2-{5-[3-chloro-4-(methyloxy)phenyl]-3-pyridin-4-yl-1H-1,2,4-triazol-1-yl}ethyl)-N-cyclopentyl-N′-(2-ethylphenyl)urea], the pIC50 is 5.00 to 6.00.
The same measure for `COc1ccc(-c2nc(-c3ccncc3)nn2CCN(C(=O)Nc2ccc(Cl)c(Cl)c2)C2CCCC2)cc1Cl` [Entry 88, N-(2-{5-[3-chloro-4-(methyloxy)phenyl]-3-pyridin-4-yl-1H-1,2,4-triazol-1-yl}ethyl)-N-cyclopentyl-N′-(3,4-dichlorophenyl)urea]: at most 5.00; for `CCCCCCNC(=O)N(CCn1nc(-c2ccncc2)nc1-c1ccc(OC)c(Cl)c1)C1CCCC1` [Entry 89, N-(2-{5-[3-chloro-4-(methyloxy)phenyl]-3-pyridin-4-yl-1H-1,2,4-triazol-1-yl}ethyl)-N-cyclopentyl-N′-hexylurea]: at most 5.00; for `COc1ccc(-c2nc(-c3ccncc3)nn2CCN(C(=O)Nc2ccc(F)cc2)C2CCCC2)cc1Cl` [Entry 90, N-(2-{5-[3-chloro-4-(methyloxy)phenyl]-3-pyridin-4-yl-1H-1,2,4-triazol-1-yl}ethyl)-N-cyclopentyl-N′-(4-fluorophenyl)urea]: at most 5.00.
The same measure for `COc1ccc(NC(=O)N(CCn2nc(-c3ccncc3)nc2-c2ccc(OC)c(Cl)c2)C2CCCC2)cc1` [Entry 91, N-(2-{5-[3-chloro-4-(methyloxy)phenyl]-3-pyridin-4-yl-1H-1,2,4-triazol-1-yl}ethyl)-N-cyclopentyl-N′-[4-(methyloxy)phenyl]urea]: at most 5.00; for `COc1ccc(-c2nc(-c3ccncc3)nn2CCN(C(=O)NCc2ccccc2)C2CCCC2)cc1Cl` [Entry 92, N-(2-{5-[3-chloro-4-(methyloxy)phenyl]-3-pyridin-4-yl-1H-1,2,4-triazol-1-yl}ethyl)-N-cyclopentyl-N′-(phenylmethyl)urea]: 5.00 to 6.00.
In the case of `COc1ccc(-c2nc(-c3ccncc3)nn2CCN(C(=O)Nc2cc(C(F)(F)F)cc(C(F)(F)F)c2)C2CCCC2)cc1Cl` [Entry 93, N′-[3,5-bis(trifluoromethyl)phenyl]-N-(2-{5-[3-chloro-4-(methyloxy)phenyl]-3-pyridin-4-yl-1H-1,2,4-triazol-1-yl}ethyl)-N-cyclopentylurea] it was at most 5.00.
For `COc1ccc(-c2nc(-c3ccncc3)nn2CCN(C(=O)Nc2cc(OC)c(OC)c(OC)c2)C2CCCC2)cc1Cl` [Entry 94, N-(2-{5-[3-chloro-4-(methyloxy)phenyl]-3-pyridin-4-yl-1H-1,2,4-triazol-1-yl}ethyl)-N-cyclopentyl-N′-[3,4,5-tris(methyloxy)phenyl]urea], the pIC50 was at most 5.00.
The same measure for `COc1ccc(-c2nc(-c3ccncc3)nn2CCN(C(=O)Nc2cccc(C(C)=O)c2)C2CCCC2)cc1Cl` [Entry 95, N′-(3-acetylphenyl)-N-(2-{5-[3-chloro-4-(methyloxy)phenyl]-3-pyridin-4-yl-1H-1,2,4-triazol-1-yl}ethyl)-N-cyclopentylurea]: at most 5.00; for `COc1ccc(-c2nc(-c3ccncc3)nn2CCN(C(=O)Nc2ccc(C)c(C)c2)C2CCCC2)cc1Cl` [Entry 96, N-(2-{5-[3-chloro-4-(methyloxy)phenyl]-3-pyridin-4-yl-1H-1,2,4-triazol-1-yl}ethyl)-N-cyclopentyl-N′-(3,4-dimethylphenyl)urea]: at most 5.00.
The same measure for `COc1ccc(-c2nc(-c3ccncc3)nn2CCN(C(=O)Nc2ccc(Cl)cc2C(F)(F)F)C2CCCC2)cc1Cl` [Entry 97, N-(2-{5-[3-chloro-4-(methyloxy)phenyl]-3-pyridin-4-yl-1H-1,2,4-triazol-1-yl}ethyl)-N′-[4-chloro-2-(trifluoromethyl)phenyl]-N-cyclopentylurea]: 5.00 to 6.00.
The same measure for `COc1ccc(-c2nc(-c3ccncc3)nn2CCN(C(=O)Nc2ccc(SC)cc2)C2CCCC2)cc1Cl` [Entry 98, N-(2-{5-[3-chloro-4-(methyloxy)phenyl]-3-pyridin-4-yl-1H-1,2,4-triazol-1-yl}ethyl)-N-cyclopentyl-N′-[4-(methylthio)phenyl]urea]: at most 5.00.
